Data: US9359311B2, “Substituted aromatic oligomers” (NEUROSCIOS GMBH, priority 2011, dated 2016)

target: T1, biotinylated Aβ1-42 (Homo sapiens, UniProt P05067); assay: Inhibition of Abeta oligomerisation (biotinylated Aβ1-42, neutravidin plate, streptavidin-HRP); type: biochemical; conditions: inhibition of Aβ1-42 aggregation, approximately 12 nM Aβ1-42, PBS pH 7.4, 2% DMSO, 30 min RT
T1 construct: To assure monomerisation of biotinylated Aβ1-42 (Anaspec #23523-0.5) the peptide was thoroughly monomerised; purchased Anaspec 23523-0.5
T1 sequence (P05067 672-713 limits assumed): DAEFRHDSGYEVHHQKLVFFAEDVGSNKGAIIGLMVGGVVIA

Row | SMILES | IC50 [µM]
1 | O=C(O)Cc1cc(-c2ccc(-c3ccc(C(=O)O)cc3)s2)sc1-c1ccc(-c2sc(-c3ccc(-c4ccc(C(=O)O)cc4)s3)cc2CC(=O)O)s1 [Example 19, 4-{5-[4-(Carboxymethyl)-5-{5-[3-(carboxymethyl)-5-[5-(4-carboxyphenyl)thiophen-2-yl]thiothiophen-2-yl]thiophen-2-yl}thiophen-2-yl]thiophen-2-yl}benzoic acid] | 3.98
2 | CNS(=O)(=O)c1ccc(-c2cc(CC(=O)O)c(-c3ccc(-c4sc(-c5ccc(S(=O)(=O)NC)cc5)cc4CC(=O)O)s3)s2)cc1 [Example 23, 2-(2-{5-[3-(Carboxymethyl)-5-[4-(methylsulfamoyl)phenyl]thiophen-2-yl]thiophen-2-yl}-5-[4-(methylsulfamoyl)phenyl]thiophen-3-yl)acetic acid] | 3.16
3 | CS(=O)(=O)c1cccc(-c2cc(CC(=O)O)c(-c3ccc(-c4sc(-c5cccc(S(C)(=O)=O)c5)cc4CC(=O)O)s3)s2)c1 [Example 22, 2-(2-{5-[3-(Carboxymethyl)-5-(3-methanesulfonylphenyl)thiophen-2-yl]thiophen-2-yl}-5-(3-methanesulfonylphenyl)thiophen-3-yl)acetic acid] | 2.51
4 | O=C(O)Cc1cc(-c2cccc(C(=O)O)c2)sc1-c1ccc(-c2sc(-c3cccc(C(=O)O)c3)cc2CC(=O)O)s1 [Example 10, 3-[4-(Carboxymethyl)-5-{5-[3-(carboxymethyl)-5-(3-carboxyphenyl)thiophen-2-yl]thiophen-2-yl}thiophen-2-yl]benzoic acid] | 7.94
5 | C[S+]([O-])c1cccc(-c2cc(CC(=O)O)c(-c3ccc(-c4sc(-c5cccc([S+](C)[O-])c5)cc4CC(=O)O)s3)s2)c1 (stereo not drawn) [Example 24, 2-(2-{5-[3-(Carboxymethyl)-5-(3-methanesulfinylphenyl)thiophen-2-yl]thiophen-2-yl}-5-(3-methanesulfinylphenyl)thiophen-3-yl)acetic acid] | 10
6 | O=C(O)Cc1cc(-c2cccs2)sc1-c1ccc(-c2sc(-c3ccc(C(=O)O)s3)cc2CC(=O)O)s1 [Example 12, 5-[4-(Carboxymethyl)-5-{5-[3-(carboxymethyl)-5-(thiophen-2-yl)thiophen-2-yl]thiophen-2-yl}thiophen-2-yl]thiophene-2-carboxylic acid] | 1.58
7 | O=C(O)Cc1cc(-c2ccc(-c3cccc(C(=O)O)c3)s2)sc1-c1ccc(-c2sc(-c3ccc(-c4cccc(C(=O)O)c4)s3)cc2CC(=O)O)s1 [Example 20, 3-{5-[4-(Carboxymethyl)-5-{5-[3-(carboxymethyl)-5-[5-(3-carboxyphenyl)thiophen-2-yl]thiophen-2-yl]thiophen-2-yl}thiophen-2-yl]thiophen-2-yl}benzoic acid] | 1
8 | CS(=O)(=O)c1ccc(-c2sc(-c3ccc(-c4cc(CC(=O)O)c(-c5ccc(S(C)(=O)=O)cc5)s4)cc3)cc2CC(=O)O)cc1 [Example 37, 2-(5-{4-[4-(Carboxymethyl)-5-(4-methanesulfonylphenyl)thiophen-2-yl]phenyl}-2-(4-methanesulfonylphenyl)thiophen-3-yl)acetic acid] | 5.01
9 | O=C(O)Cc1ccsc1-c1ccc(-c2sc(-c3cccc(-c4cc(CC(=O)O)c(-c5ccc(-c6sccc6CC(=O)O)s5)s4)c3)cc2CC(=O)O)s1 [Example 34, 2-(2-{5-[3-(Carboxymethyl)-5-{3-[4-(carboxymethyl)-5-{5-[3-(carboxymethyl)thiophen-2-yl]thiophen-2-yl}thiophen-2-yl]phenyl}thiophen-2-yl]thiophen-2-yl}thiophen-3-yl)acetic acid] | 0.794
10 | O=C(O)Cc1ccsc1-c1ccc(-c2sc(-c3ccc(-c4cc(CC(=O)O)c(-c5ccc(-c6sccc6CC(=O)O)cc5)s4)cc3)cc2CC(=O)O)cc1 [Example 38, 2-(2-{4-[3-(Carboxymethyl)-5-{4-[4-(carboxymethyl)-5-{4-[3-(carboxymethyl)thiophen-2-yl]phenyl}thiophen-2-yl]phenyl}thiophen-2-yl]phenyl}thiophen-3-yl)acetic acid] | 1.58
11 | O=C(O)Cc1ccsc1-c1ccc(-c2sc(-c3ccc(-c4cc(CC(=O)O)c(-c5ccc(-c6sccc6CC(=O)O)cc5)s4)s3)cc2CC(=O)O)cc1 [Example 40, 2-(5-{5-[4-(Carboxymethyl)-5-{4-[3-(carboxymethyl)thiophen-2-yl]phenyl}thiophen-2-yl]thiophen-2-yl}-2-{4-[3-(carboxymethyl)thiophen-2-yl]phenyl}thiophen-3-yl)acetic acid] | 1.26
12 | O=C(O)Cc1cc(-c2ccc(-c3ccccc3C(=O)O)s2)sc1-c1ccc(-c2sc(-c3ccc(-c4ccccc4C(=O)O)s3)cc2CC(=O)O)s1 [Example 43, 2-{5-[4-(Carboxymethyl)-5-{5-[3-(carboxymethyl)-5-[5-(2-carboxyphenyl)thiophen-2-yl]thiophen-2-yl]thiophen-2-yl}thiophen-2-yl]thiophen-2-yl}benzoic acid] | 3.98
13 | O=C(O)Cc1cc(-c2cccnc2)sc1-c1ccc(-c2sc(-c3ccc(C(=O)O)s3)cc2CC(=O)O)s1 [Example 13, 5-[4-(Carboxymethyl)-5-{5-[3-(carboxymethyl)-5-(pyridin-3-yl)thiophen-2-yl]thiophen-2-yl}thiophen-2-yl]thiophene-2-carboxylic acid] | 7.94
14 | NCCc1ccsc1-c1ccc(-c2sc(-c3ccc(-c4cc(CCN)c(-c5ccc(-c6sccc6CCN)s5)s4)s3)cc2CCN)s1 [Example 42, 2-(2-{5-[3-(2-Aminoethyl)-5-{5-[4-(2-aminoethyl)-5-{5-[3-(2-aminoethyl)thiophen-2-yl]thiophen-2-yl}thiophen-2-yl]thiophen-2-yl}thiophen-2-yl]thiophen-2-yl}thiophen-3-yl)ethan-1-amine] | 0.251
15 | CS(=O)(=O)c1ccc(-c2cc(CCN)c(-c3ccc(-c4sc(-c5ccc(S(C)(=O)=O)cc5)cc4CCN)s3)s2)cc1 [Example 41, 2-(2-{5-[3-(2-Aminoethyl)-5-(4-methanesulfonylphenyl)thiophen-2-yl]thiophen-2-yl}-5-(4-methanesulfonylphenyl)thiophen-3-yl)ethan-1-amine] | 0.794

The remaining lines, values ahead:

Row | IC50 [µM] | SMILES
16 | 12.6 | N#Cc1cccc(-c2cc(CC(=O)O)c(-c3ccc(-c4sc(-c5cccc(C#N)c5)cc4CC(=O)O)s3)s2)c1 [Example 83, 2-(2-{5-[3-(Carboxymethyl)-5-(3-cyanophenyl)thiophen-2-yl]thiophen-2-yl}-5-(3-cyanophenyl)thiophen-3-yl)acetic acid]
17 | 3.98 | N#Cc1ccc(-c2cc(CC(=O)O)c(-c3ccc(-c4sc(-c5ccc(C#N)s5)cc4CC(=O)O)s3)s2)s1 [Example 85, 2-(2-{5-[3-(Carboxymethyl)-5-(5-cyanothiophen-2-yl)thiophen-2-yl]thiophen-2-yl}-5-(5-cyanothiophen-2-yl)thiophen-3-yl)acetic acid]
18 | 1 | O=C(O)Cc1cc(-c2cccc(OC(F)(F)F)c2)sc1-c1ccc(-c2sc(-c3cccc(OC(F)(F)F)c3)cc2CC(=O)O)s1 [Example 87, 2-(2-{5-[3-(Carboxymethyl)-5-[3-(trifluoromethoxy)phenyl]thiophen-2-yl]thiophen-2-yl}-5-[3-(trifluoromethoxy)phenyl]thiophen-3-yl)acetic acid]
19 | 3.16 | COC(=O)c1ccc(-c2cc(CC(=O)O)c(-c3ccc(-c4sc(-c5ccc(C(=O)OC)s5)cc4CC(=O)O)s3)s2)s1 [Example 70, 2-(2-{5-[3-(Carboxymethyl)-5-[5-(methoxycarbonyl)thiophen-2-yl]thiophen-2-yl]thiophen-2-yl}-5-[5-(methoxycarbonyl)thiophen-2-yl]thiophen-3-yl)acetic acid]
20 | 7.94 | O=C(O)Cc1cc(-c2cccc(C(=O)NC3CC3)c2)sc1-c1ccc(-c2sc(-c3cccc(C(=O)NC4CC4)c3)cc2CC(=O)O)s1 [Example 80, 2-(2-{5-[3-(Carboxymethyl)-5-[3-(cyclopropylcarbamoyl)phenyl]thiophen-2-yl]thiophen-2-yl}-5-[3-(cyclopropylcarbamoyl)phenyl]thiophen-3-yl)acetic acid]
21 | 5.01 | O=C(O)Cc1cc(-c2cc(CC(=O)O)c(-c3ccc(-c4cccc(C(=O)O)c4)s3)s2)sc1-c1ccc(-c2cccc(C(=O)O)c2)s1 [Example 66, 3-{5-[3-(Carboxymethyl)-5-[4-(carboxymethyl)-5-[5-(3-carboxyphenyl)thiophen-2-yl]thiophen-2-yl]thiophen-2-yl]thiophen-2-yl}benzoic acid]
22 | 5.01 | O=C(O)c1cccc(-c2cc(CCO)c(-c3ccc(-c4sc(-c5cccc(C(=O)O)c5)cc4CCO)s3)s2)c1 [Example 74, 3-(5-{5-[5-(3-Carboxyphenyl)-3-(2-hydroxyethyl)thiophen-2-yl]thiophen-2-yl}-4-(2-hydroxyethyl)thiophen-2-yl)benzoic acid]
23 | 2.51 | O=C(O)/C=C/c1ccc(-c2cc(CC(=O)O)c(-c3ccc(-c4sc(-c5ccc(/C=C/C(=O)O)s5)cc4CC(=O)O)s3)s2)s1 [Example 64]
24 | 0.398 | O=C(O)Cc1cc(Cl)sc1-c1ccc(-c2sc(-c3ccc(-c4cc(CC(=O)O)c(-c5ccc(-c6sc(Cl)cc6CC(=O)O)s5)s4)s3)cc2CC(=O)O)s1 [Example 58, 2-(2-{5-[3-(Carboxymethyl)-5-{5-[4-(carboxymethyl)-5-{5-[3-(carboxymethyl)-5-chlorothiophen-2-yl]thiophen-2-yl}thiophen-2-yl]thiophen-2-yl}thiophen-2-yl]thiophen-2-yl}-5-chlorothiophen-3-yl)acetic acid]
